Where two headings read alike, the source gives them in different places.
Tested on: OTMN-induced tremor in rat
Assay: Potentiation of oxotremorine (OTMN)-induced tremor in rat (potentiation of cholinergic responses)
Type: in vivo
Details: for minimal effective dose: Rattus norvegicus, ip, read-out: Potentiation of OTMN-induced tremor in rat
Method: Potentiation of cholinergic responses
Male rats (Sprague Dawley Alab Laboratorietjänst AB, Sollentuna, Sweden) weighing 150-180 g, 35-40 days of age, were used. The animals were allowed free access to food (R3, Ewos AB, Södertälje, Sweden) and water until the start of the experiments. The test compounds were injected intraperitoneally (i.p.) 30 minutes before injection of the muscarine agonist oxotremorine (OTM) into the neck (s.c.). Tremor intensity was assessed visually for a 60 minutes period following the injection of OTMN in rat housed in Macrolon cages (25x25x30 cm) (three per cage). The threshold dose of OTMN for eliciting tremor in rat is about 200 µg/kg.
Tremor intensity was scored using the following rating scale: 0 = no tremor; 1 = slight tremor (moderate, discontinuous tremor; 2 = strong tremor (intense, continuous tremor involving the whole body). The animals were scored 5, 10, 15, 30 and 60 minutes after injection of OTMN. The tremor was scored for a period of 30 seconds.
The values for each observation were summed over the entire observation period (5-60 minutes) and their median values for each group were calculated (total median score). Mann-Whitney U-test (two-tailed) was used to determine differences between the control OTMN group and test groups receiving the compounds + OTMN. […].
The lowest dose causing a significant (p<0.05) potentiation of the OTMN response was determined from log-dose response curves.

[1] = lowest dose causing a significant (p<0.05) potentiation of the OTMN response, from log-dose response curves, test compound i.p. 30 minutes before oxotremorine s.c., male Sprague Dawley rats, tremor scored 5-60 minutes

## CCCCCC(N)CC(O)C(C)(C)Cc1ccc(F)cc1.O=C(O)C(=O)O (centres unmarked) [Example 9, 5-Amino-2,2-dimethyl-1-(4-fluorophenyl)-3-decanol oxalate]
[1]
  minimal effective dose: 5 mg/kg

## CC(N)C(=O)OC(C)(C)Cc1ccc(Cl)cc1 (centres unmarked) [Alaproclate, alaproclate, reference compound]
  minimal effective dose: 5 mg/kg

## CCC(N)CC(=O)C(C)(C)Cc1ccc(F)cc1 (centres unmarked) [Example 5, 5-amino-2,2-dimethyl-1-(4-fluorophenyl)-3-heptanone]
[1]
  minimal effective dose: 0.63 mg/kg

## CCC(N)CC(O)C(C)(C)Cc1ccc(F)cc1.O=C(O)C(=O)O (centres unmarked) [Example 7, 5-Amino-2,2-dimethyl-1-(4-fluorophenyl)-3-heptanol oxalate]
[1]
  minimal effective dose: 2.5 mg/kg

## CCC(N)CC(=O)C(C)(C)Cc1ccc(F)cc1.O=C(O)C(=O)O (racemic) [Example 1, 5-amino-2,2-dimethyl-1-(4-fluorophenyl)-3-heptanone oxalate]
[1]
  minimal effective dose: 0.63 mg/kg

## CC(C)C(N)CC(=O)C(C)(C)Cc1ccc(F)cc1.O=C(O)C(=O)O (centres unmarked) [Example 12, 5-Amino-1-(4-fluorophenyl)-2,2,6-trimethyl-3-heptanone oxalate]
[1]
  minimal effective dose: 2.5 mg/kg

## CC(C)C(N)CC(O)C(C)(C)Cc1ccc(F)cc1.O=C(O)C(=O)O (centres unmarked) [Example 8, 5-Amino-1-(4-fluorophenyl)-2,2,6-trimethyl-3-heptanol oxalate]
[1]
  minimal effective dose: 10 mg/kg

## CCC(N)CC(=O)C(C)(C)Cc1ccc(F)cc1 (centres unmarked) [Example 6, 5-amino-2,2-dimethyl-1-(4-fluorophenyl)-3-heptanone]
[1]
  Potentiation of OTMN-induced tremor in rat: 0.63 mg/kg
